From the NIST ThermoML archive (doi:10.1016/j.tca.2013.04.011)
± gives the expanded uncertainty stated by the source.

Settings: 101.33 kPa, Liquid; for speed of sound: Single path-length method; for mass density: Vibrating tube method

speed of sound (293.15 K)	mass density (293.15 K)	speed of sound (298.15 K)	mass density (298.15 K)	speed of sound (303.15 K)	mass density (303.15 K)	speed of sound (308.15 K)	mass density (308.15 K)	Compound
1631 ± 2 m/s	1283.89 ± 1.9 kg/m3	1619.4 ± 2 m/s	1279.91 ± 1.9 kg/m3	1607.6 ± 2 m/s	1276.26 ± 1.9 kg/m3	1596.3 ± 2 m/s	1272.07 ± 1.9 kg/m3	CCn1cc[n+](C)c1.F[B-](F)(F)F [1-ethyl-3-methylimidazolium tetrafluoroborate]
1565.5 ± 1.1 m/s	1033.23 ± 0.33 kg/m3	1546 ± 1.1 m/s	1028.23 ± 0.33 kg/m3	1527.2 ± 1.1 m/s	1023.46 ± 0.32 kg/m3	1507.4 ± 1.1 m/s	1018.66 ± 0.32 kg/m3	CN1CCCC1=O [N-methylpyrrolidone]

Compound	speed of sound (293.15 K)	mass density (293.15 K)	speed of sound (298.15 K)	mass density (298.15 K)	speed of sound (303.15 K)	mass density (303.15 K)	speed of sound (308.15 K)	mass density (308.15 K)
O=C1CCCN1 [2-pyrrolidinone]	1650.1 ± 1.1 m/s	1111.28 ± 0.41 kg/m3	1633.9 ± 1.1 m/s	1107.15 ± 0.41 kg/m3	1617.1 ± 1.1 m/s	1103.02 ± 0.41 kg/m3	1601.8 ± 1.1 m/s	1098.9 ± 0.4 kg/m3
